# Assay results reported in paper PMC12583827, “Harnessing microbial-derived metabolites in the urinary tract to prevent infection induced catheter encrustation” (Nature Communications, 2025).
# Legend:
# M. morganii TA43 = experiment: Growth and viability of M. morganii in dampening metabolites; assay type: cell-based, Morganella morganii
# Protocol: 478 Supplementary Figure 20. Growth of M. morganii, P. stuartii and UTI MRSA incubated in
# 479 dampening metabolites. M. morganii TA43 (A,D,G), P. stuartii BE2467(B,E,H), UTI MRSA
# 480 (C,F,I) were incubated in urease dampening metabolites to assess impact on growth. Bacteria
# 481 were cultured for ~18 hours in LB (Mm and Ps) or BHI (MRSA) broth, then diluted 1:100 into
# 482 fresh broth with (A-C) the highest concentrations of dampening metabolites assessed for urease
# 483 inhibition or (D-F) serial dilutions of D-imidazole lactate. Bacterial suspensions were incubated
# 484 at 37 °C with double-orbital shaking, and OD600 was measured every 15 minutes for 18 hours.
# 485 Error bars represent mean ± standard deviation (SD) from at least 3 technical replicates, and
# 486 graphs are representative of 3 independent biologic experiments. (G-I) Viability of incubated in
# 487 Mm, Ps or MRSA incubated in serial dilutions of D-imidazole lactate. Overnight cultures were
# (1 picture or pasted object on this page, not shown here)
# 488 subcultured to mid log phase, washed in potassium phosphate buffer, and diluted 1:10 in
# 489 potassium phosphate buffer with and without D-imidazole lactate. Samples (n=3) were incubated
# 490 at 37°C with aeration for one hour then plated and enumerated for colony forming units (CFU).
# P. stuartii urease = experiment: Urease activity assay, whole cell P. stuartii BE2467; assay type: cell-based, Providencia stuartii
# Protocol: Urease activity was measured as described previously in triplicate with at least three biological replicates[21]. Briefly, bacteria were cultured for ~18 h in LB broth, concentrated to an OD600 of 4, washed once in saline, and diluted (1:10 for P. mirabilis and 1:50 for P. stuartii and M. morganii) into candidate dampening metabolites in potassium phosphate buffer or human urine pH7 and supplemented with 500 mM urea and 0.01% phenol red. Bacterial suspensions were distributed into a 96-well plate, incubated at 37 °C with double-orbital shaking in a Synergy H1 plate reader (BioTek), and absorbance (OD562) was measured every 60 seconds for 180 minutes. Isogenic urease mutants (Supplementary Data 1) served as negative controls for P. mirabilis and P. stuartii and a vehicle control served as a negative control for M. morganii.
smiles,measurement,setting,value
"O.O=C(O)[C@H](O)Cc1cnc[nH]1 [D-imidazole lactate, D-imidazolelactic acid hydrate]",growth of M. morganii,M. morganii TA43; LB broth,perturbed growth
same,antimicrobial activity against M. morganii TA43,"M. morganii TA43; incubation in potassium phosphate, CFU",robust antimicrobial activity
same,urease activity in P. stuartii,P. stuartii urease,most potent urease inhibition
